Test system: P388
Assay: Cytotoxicity against mouse P388 cells
Assay type: functional, cell-based

SMILES	IC50
C/C=C/[C@@H]1OC(=O)C=C[C@@H]1O [PHOMALACTONE]	40.9 µM
CC(C)C[C@@H]1NC(=O)[C@H](CC(C)C)NC(=O)[C@@H](C)NC(=O)[C@H](C(C)C)NC(=O)[C@@H](CC(C)C)NC1=O [CHRYSOSPORIDE]	33.4 µM
CC(=O)Cc1cc(O)c(C)c(O)c1C=O	19.7 µM
Cc1cc(O)c(C)c(O)c1C=O	126 µM

Source: ChEMBL document CHEMBL1158085, “Chrysosporide, a cyclic pentapeptide from a New Zealand sample of the fungus Sepedonium chrysospermum” (J Nat Prod, 2006)
